SMILES strings stand for the structures. “And” between values parts separate entries of the source, which are not always exact repeats. Equal values may be shown once.

What is called Ki is a measure of affinity in units of concentration, obtained from inhibition or displacement. A word on the EC50: it is the concentration giving half of the maximal effect.

Test [1] has as its target DRD2 (D2 long receptor) wild-type (Homo sapiens, UniProt P14416). The test is described as follows: Radioligand competition binding, [3H]-N-methylspiperone, HEK293T membranes. Conditions: for Ki: DRD2, [3H]-methylspiperone (0.8-1.0 nM), read-out: Ki. (In general: Loss of bound radioactivity is the signal in a displacement assay; it reports binding, not function.)
The target of a further test is DRD3 wild-type (Homo sapiens, UniProt P35462). The test can be described thus: Radioligand competition binding, [3H]-N-methylspiperone. Conditions: for Ki: DRD3, [3H]-methylspiperone (0.8-1.0 nM), read-out: Ki; for pKi ± SEM: DRD3 wild-type.
Chain of DRD3 wild-type (P35462 whole entry): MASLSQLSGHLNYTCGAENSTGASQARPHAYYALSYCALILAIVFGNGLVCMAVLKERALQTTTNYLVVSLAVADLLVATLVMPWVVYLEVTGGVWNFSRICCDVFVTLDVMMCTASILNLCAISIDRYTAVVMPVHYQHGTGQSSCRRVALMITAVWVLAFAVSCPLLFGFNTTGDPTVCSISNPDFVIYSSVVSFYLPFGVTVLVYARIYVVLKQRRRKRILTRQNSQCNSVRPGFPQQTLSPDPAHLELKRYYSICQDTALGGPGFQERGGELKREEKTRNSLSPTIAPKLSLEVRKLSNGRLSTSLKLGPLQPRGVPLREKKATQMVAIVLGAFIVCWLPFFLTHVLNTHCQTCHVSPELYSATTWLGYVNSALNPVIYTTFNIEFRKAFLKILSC
Test [2] has as its target T1, DRD4 (D4.4 variant) wild-type (Homo sapiens, UniProt P21917).
T1 sequence (P21917 1-419): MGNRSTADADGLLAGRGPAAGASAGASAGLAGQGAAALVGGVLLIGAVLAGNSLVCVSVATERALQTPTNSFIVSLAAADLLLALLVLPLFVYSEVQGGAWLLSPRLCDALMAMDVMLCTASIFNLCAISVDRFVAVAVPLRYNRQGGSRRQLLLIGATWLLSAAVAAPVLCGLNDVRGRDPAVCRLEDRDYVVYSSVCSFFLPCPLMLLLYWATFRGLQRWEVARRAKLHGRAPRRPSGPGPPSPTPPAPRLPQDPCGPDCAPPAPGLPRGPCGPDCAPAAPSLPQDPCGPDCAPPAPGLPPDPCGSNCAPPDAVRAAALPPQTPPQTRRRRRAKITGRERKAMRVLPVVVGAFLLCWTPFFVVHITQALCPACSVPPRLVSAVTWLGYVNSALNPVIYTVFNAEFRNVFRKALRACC
The description is as above. Conditions: DRD4; [3H]-methylspiperone (0.8-1.0 nM); read-out: Ki.

The target in test [3] is T2, DRD3 F1063.28A (Homo sapiens, UniProt P35462, F106A). The test is described as follows: biochemical. In kind it is binding. The settings on record: DRD3 F1063.28A; read-out: Ki.
T2 sequence (P35462 whole entry F106A): as the sequence (P35462 whole entry) above, with F106A counted along it
The target of test [4] is T3, DRD2 (D2 long receptor) (Homo sapiens, UniProt P14416). The test can be described thus: Gαi/o-mediated cAMP inhibition (GloSensor split-luciferase cAMP reporter), HEK293T.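 For all read-outs here: compounds applied 15 min at room temperature, then luciferin plus 400 nM isoproterenol to raise cAMP through endogenous β2-adrenergic receptors, luminescence read 15 min later.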 The settings on record: for EC50: agonist, Gαi/o-mediated cAMP inhibition, read-out: EC50 ± SEM; for Response, Fig_S11b dose-response: individual replicates. In kind it is cell-based.
T3 sequence (P14416 whole entry): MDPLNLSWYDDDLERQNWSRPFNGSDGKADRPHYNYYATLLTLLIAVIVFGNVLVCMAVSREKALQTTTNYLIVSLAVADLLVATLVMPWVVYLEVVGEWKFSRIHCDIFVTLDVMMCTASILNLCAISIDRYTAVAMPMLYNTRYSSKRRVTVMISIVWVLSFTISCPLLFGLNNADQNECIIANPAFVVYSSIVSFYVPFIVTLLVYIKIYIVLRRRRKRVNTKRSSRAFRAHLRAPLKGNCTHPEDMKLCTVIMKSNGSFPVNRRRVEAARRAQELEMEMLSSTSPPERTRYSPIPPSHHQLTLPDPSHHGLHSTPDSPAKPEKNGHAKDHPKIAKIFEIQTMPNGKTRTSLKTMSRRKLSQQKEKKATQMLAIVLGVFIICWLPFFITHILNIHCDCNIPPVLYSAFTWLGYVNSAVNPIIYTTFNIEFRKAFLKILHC
Test [5] deals with T4, DRD4 (D4.4 variant) (Homo sapiens, UniProt P21917).
T4 sequence (P21917 1-419): T1 sequence (P21917 1-419)
The test is described as follows: Gαi/o-mediated cAMP inhibition (GloSensor). In kind it is cell-based. The settings on record: DRD4; agonist, cAMP inhibition; read-out: EC50 ± SEM.

In test [6] the target is T3, DRD2 (D2 long receptor). The test is described as follows: β-arrestin2 recruitment (Tango), HTLA cells. The format is cell-based. Conditions: for EC50 / Emax relative to quinpirole response: DRD2; for EC50: β-arrestin2 recruitment (Tango), read-out: EC50 ± SEM; for Emax relative to quinpirole response: Tango; for Response, Fig_S11c dose-response: individual replicates. (In general: Activated receptors often draw arrestin, which recruitment assays turn into a signal.)

A further test addresses DRD3 (Homo sapiens, UniProt P35462). The test is described as follows: β-arrestin2 recruitment (Tango). The format is cell-based. Conditions: DRD3; Tango; read-out: EC50 ± SEM.
Test [7] addresses T4, DRD4 (D4.4 variant). The test can be described thus: β-arrestin2 recruitment (Tango). Conditions: DRD4; Tango; read-out: EC50 ± SEM. The format is cell-based.
Test [8] addresses T5, DRD2 F1103.28A (Homo sapiens, UniProt P14416, F110A). The format is binding. Further details: expressed in transfected cells; host or cells: HEK293T (ATCC CRL-11268). Conditions: DRD2 F1103.28A; for Ki: read-out: Ki.
In test [9] the target is T6, DRD2 F1103.28L (Homo sapiens, UniProt P14416, F110L).
T6 construct: expressed in transfected cells; host or cells: HEK293T (ATCC CRL-11268)
T6 sequence (P14416 whole entry F110L): as the sequence (P14416 whole entry) above, with F110L counted along it
The test can be described thus: Gαi/o-mediated cAMP inhibition (GloSensor), mutant. The format is cell-based. Conditions: DRD2 F1103.28L (b138 head prints DRD2 F1063.28L).

The target of test [10] is T6, DRD2 F1103.28L. The test can be described thus: β-arrestin2 recruitment (Tango), mutant. The format is cell-based.
The target in test [11] is T2, DRD3 F1063.28A. The test can be described thus: cell-based. In kind it is cell-based. The settings on record: DRD3 F1063.28A; Tango; read-out: EC50 ± SEM.
The target of test [12] is T5, DRD2 F1103.28A. The test can be described thus: Gαi/o-mediated cAMP inhibition (GloSensor), mutant. In kind it is cell-based. Further details: expressed in transfected cells; host or cells: HEK293T (ATCC CRL-11268).
Test [13] addresses T5, DRD2 F1103.28A. The test is described as follows: β-arrestin2 recruitment (Tango), mutant. In kind it is cell-based. More on the design: expressed in transfected cells; host or cells: HEK293T (ATCC CRL-11268).

Chain of DRD2 (D2 long receptor) wild-type (P14416 whole entry): as the sequence (P14416 whole entry) above
T5 sequence (P14416 whole entry F110A): as the sequence (P14416 whole entry) above, with F110A counted along it
Chain of DRD3 (P35462 whole entry): as the sequence (P35462 whole entry) above

As to `CCOc1cccc2cc(C(C)NCC(C)(C)O)oc12` (racemic) [O4LE2], the Ki (in test [1]; on DRD3 wild-type; in [2]; at DRD3 F1063.28A [3]; on DRD2 F1103.28A [8]) was over 10 µM in each case. Besides, the half-maximal effective concentration (EC50) on DRD2 (D2 long receptor) [4] (DRD2), at DRD4 (D4.4 variant) [5], on DRD2 (D2 long receptor) [6], on DRD3 and on DRD4 (D4.4 variant) [7] was over 10 µM each time.

Turning to `CCOc1cccc2cc(C(C)NCC3(O)CC3)oc12.Cl` (racemic) [O4LE3], the Ki in test [1] is over 10 µM; on DRD3 wild-type it was 4.37 µM; in test [2] it was over 10 µM; on DRD3 F1063.28A [3], over 10 µM; at DRD2 F1103.28A [8], over 10 µM. Besides, at DRD3 wild-type, the “pKi ± SEM” value was 5.36±0.31. Moreover, the EC50 is over 10 µM on DRD2 (D2 long receptor) [4] (DRD2); over 10 µM at DRD4 (D4.4 variant) [5]; over 10 µM at DRD2 F1103.28L [9]; 8.85 ± 2.62 µM at DRD2 (D2 long receptor) [6]; over 10 µM at DRD3; over 10 µM at DRD4 (D4.4 variant) [7]. Also, the EC50 at DRD2 F1103.28L [10], on DRD3 F1063.28A [11], at DRD2 F1103.28A [12] and on DRD2 F1103.28A [13] was over 10 µM each time. Also, the “Emax relative to quinpirole response” value at DRD2 (D2 long receptor) [6] is 9.29%.

As for `CCOc1cccc2cc(C(C)NCCO)oc12` (stereo not shown) [O4LE1], the Ki (in test [1]; on DRD3 wild-type; in test [2]; on DRD3 F1063.28A [3]; at DRD2 F1103.28A [8]) was over 10 µM each time. The EC50 on DRD2 (D2 long receptor) [4] (DRD2), on DRD4 (D4.4 variant) [5], on DRD2 (D2 long receptor) [6], at DRD3 and at DRD4 (D4.4 variant) [7] was over 10 µM each time.

Regarding `CCCCOc1cccc2cc(C(C)NCC3(O)CCCCC3)oc12.Cl` (stereo not shown) [O6LE6], the Ki in [1] was 2.04 µM; on DRD3 wild-type, 0.85 µM; in test [2], over 10 µM; at DRD2 F1103.28A [8] it was 0.3 µM. Besides, the “pKi ± SEM” value was 5.69±0.06 in [1] (DRD2 wild-type), 6.07±0.01 on DRD3 wild-type and 6.53±0.31 at DRD2 F1103.28A [8]. Moreover, the EC50 at DRD2 (D2 long receptor) [4] (DRD2) is 0.0464 ± 0.0155 µM; on DRD4 (D4.4 variant) [5], over 10 µM; on DRD2 (D2 long receptor) [6], 0.557 ± 0.129 µM; on DRD3, over 10 µM; on DRD4 (D4.4 variant) [7], over 10 µM. In addition, the “Emax relative to quinpirole response” value is 96.65% at DRD2 (D2 long receptor) [4] (DRD2, cAMP inhibition) and 83.11% at DRD2 (D2 long receptor) [6]. Further, the “Response, Fig_S11b dose-response” value on DRD2 (D2 long receptor) [4] (Log[Drug] -5) is 81.0159 and 81.9991 and 95.2013 and 90.5911 and 100.378 and 91.8314 and 90.3639 and 94.9855 and 86.3213; on DRD2 (D2 long receptor) [4] (Log[Drug] -5.52), 88.5768 and 95.2247 and 77.4579 and 98.4012 and 97.1899 and 97.626 and 96.6191 and 98.263 and 92.5248; on DRD2 (D2 long receptor) [4] (Log[Drug] -6), 91.3624 and 86.7743 and 72.7996 and 95.3198 and 99.2054 and 99.6124 and 91.2428 and 94.603 and 88.8234; on DRD2 (D2 long receptor) [4] (Log[Drug] -6.52), 80.2434 and 83.1695 and 87.1255 and 85.3392 and 85.0097 and 83.4496 and 88.4512 and 85.5769 and 83.1472; at DRD2 (D2 long receptor) [4] (Log[Drug] -7) it was 58.0056 and 50.7491 and 42.2987 and 73.1202 and 72.0543 and 69.6996 and 76.9851 and 77.9363 and 79.6216; at DRD2 (D2 long receptor) [4] (Log[Drug] -7.52), 45.2247 and 26.7088 and 25.0468 and 53.9826 and 53.3236 and 57.1802 and 56.5964 and 48.0046 and 46.7638. Moreover, the “Response, Fig_S11b dose-response” value is 27.6217 and 13.9045 and 1.873 and 27.4516 and 30.7752 and 36.8798 and 38.172 and 42.1216 and 42.4628 at DRD2 (D2 long receptor) [4] (Log[Drug] -8); 12.8745 and -2.8324 and -17.6966 and 25 and 13.7985 and 29.6899 and 21.5778 and 11.2386 and 28.598 at DRD2 (D2 long receptor) [4] (Log[Drug] -8.52); 19.5459 and 15.9176 and 4.8221 and 21.5698 and 25.5426 and 29.7481 and 11.342 and 13.0583 and 27.4194 on DRD2 (D2 long receptor) [4] (Log[Drug] -9); 6.507 and 4.611 on DRD2 (D2 long receptor) [4] (Log[Drug] -11); 28.839 and 31.7182 and 13.2022 and 1.376 and -1.3857 and 16.4244 and 10.2357 and 2.895 and 29.146 at DRD2 (D2 long receptor) [4] (Log[Drug] -11.52); 23.5955 and 3.886 and -4.2135 and -2.9264 and -5.2713 and 2.829 and 6.638 and 20.6162 at DRD2 (D2 long receptor) [4] (Log[Drug] -12). The “response, Fig_S11c dose-response source data” value on DRD2 (D2 long receptor) [6] (Fig_S11c, Log[Drug] -5, replicate values) was 102.612 and 76.914 and 118.815 and 128.686 and 107.344 and 93.7459 and 91.4018 and 94.1354. Moreover, the “Response, Fig_S11c dose-response” value on DRD2 (D2 long receptor) [6] (Log[Drug] -6.52) was 31.2199 and 46.2944 and 28.6852; on DRD2 (D2 long receptor) [6] (Log[Drug] -7), 11.3874 and 10.0089 and 10.6537 and 8.17 and 16.7384 and 23.3506 and 16.3825 and 16.4206 and 21.2486; at DRD2 (D2 long receptor) [6] (Log[Drug] -7.52), 2.983 and 1.764 and 4.002 and -3.309 and -7.696 and -0.6325 and 11.3698 and 6.994 and 12.6997; on DRD2 (D2 long receptor) [6] (Log[Drug] -8), 3.216 and 0.7671 and -0.1186 and 4.58 and -7.813 and 8.0383 and 4.755 and 0.516 and 2.286; on DRD2 (D2 long receptor) [6] (Log[Drug] -8.52), 2.679 and 1.071 and -1.473 and 0.4627 and -3.045 and 4.511 and 0.1556 and -1.011; at DRD2 (D2 long receptor) [6] (Log[Drug] -9) it was 0.7411 and 0.1816 and 1.971 and -2.53 and -2.659 and 6.978 and 2.24 and -0.7813 and 0.4791. Moreover, the “Response, Fig_S11c dose-response” value on DRD2 (D2 long receptor) [6] (Log[Drug] -9.52) is 1.675 and 0.3261 and 1.23 and 1.988 and 0.5154 and 6.132 and 2.922 and -0.3739 and -1.362; on DRD2 (D2 long receptor) [6] (Log[Drug] -10), 0.7745 and 3.454 and 0.4706 and -6.955 and -3.6985 and -1.1362 and 1.072 and 0.3907 and -1.333; on DRD2 (D2 long receptor) [6] (Log[Drug] -10.52), 0.1927 and 0.4854 and 0.3409 and -1.124 and 8.703 and 5.11 and 0.478 and 0.806 and 3.44; on DRD2 (D2 long receptor) [6] (Log[Drug] -11), 0.4891 and -0.1075 and 0.05188 and -6.3018 and 5.0836 and -3.93 and -2.3709 and 4.648 and -1.497; at DRD2 (D2 long receptor) [6] (Log[Drug] -11.52) it was 2.264 and 2.713 and 0.6374 and -3.324 and 3.804 and -6.217 and 0.5754 and 2.325 and 0.9369; at DRD2 (D2 long receptor) [6] (Log[Drug] -12), 0.04817 and -0.3928 and 5.406 and 4.214 and -4.302 and -2.66 and 3.553 and -0.8933.

The values above are taken from article PMC7044277 (Nature Communications, 2020).
